Test results published in publication PMC7618036, “An oral heme oxygenase inhibitor targets immunosuppressive perivascular macrophages in preclinical models of cancer” (Science translational medicine, 2025).

How the values were obtained:
MMTV-PyMT mice = assay: Toxicity evaluation of MMTV-PyMT mice after 21 days of treatment; assay type: in vivo, mouse; settings: KCL-HO-1i p.o. and/or gemcitabine i.p.
Protocol: (D-G) The MMTV-PyMT mice in (B) were evaluated for evidence of toxicity, including weight change from treatment initiation (D), end of treatment (day 21) plasma ratio of AST:ALT enzymes (E), blood circulating immune cells assessed using flow cytometry (F) and pathology assessment of inflammatory cell infiltrate in the lungs alongside an additional cohort or WT non-tumor bearing mice given dual treatment for 21 days and then assessed at treatment cessation or 30 days after treatment cessation (G). Image in panel (A) was created using BioRender. Bar charts show the mean, error bars SD, and the dots show individual data points from individual tumors and mice. Line charts display the mean and SEM. Gemc.; gemcitabine. * P<0.05, ** P<0.01.
Tissue sections (3µm) were cut from FFPE tissues from the brain, lung, heart, kidney, and liver of treated animals and mounted onto Plus^+ Frost slides (Solmedia). […] Tissue sections were initially examined unblinded and then re-evaluated blinded to confirm the significant findings ([77]). Findings in the tissue were scored using a non-linear semiquantitative grading system from 0 to 5 where 0 = no significant change and 5 = whole organ or tissue affected ([78]). Where grading was not appropriate, findings were scored ‘present’ (P) if seen. In addition, an approximate number of lung metastases was recorded in parentheses after P if present ([78]). […]

[1] = set-up: method as in PMID 19581737, PMID 22993376; settings: cited from earlier work

## Nc1ccn([C@@H]2O[C@H](CO)[C@@H](O)C2(F)F)c(=O)n1 [gemcitabine]
MMTV-PyMT mice
  immune cell composition of the blood: unaffected
[1]
  patients with pulmonary inflammation: approximately 23%
